Molecules are shown by their SMILES.

These results are taken from the supplement of paper PMC8967900.
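Note: ALL cell lines in 384-well plates, five doses spanning 10,000-fold, each plate scaled between vehicle and 100 µmol/L benzalkonium chloride controls, sDSS an adapted area-under-curve metric.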

One assay deals with RPMI-8402. Briefly: selective drug sensitivity score (sDSS, relative to normal bone marrow) (sDSS (score)); higher = more potent and effective on the cell line relative to normal bone marrow cells. The settings on record: 72 h.
For the compound `COC[C@H](NC(=O)c1cnc(C)s1)C(=O)N[C@@H](COC)C(=O)N[C@@H](Cc1ccccc1)C(=O)[C@@]1(C)CO1` [Oprozomib] (top concentration 2500 nM), the “selective drug sensitivity score” value was found to be 2.8.

On to `Cc1ccc(C(=O)N(CCCN)[C@@H](c2oc3cc(Cl)ccc3c(=O)c2Cc2ccccc2)C(C)C)cc1` (top concentration 100 nM), for which the “selective drug sensitivity score” value came to 2.86.

Consider `CCn1c(C(=O)N(C2CC2)C2CC2)cc2c3c(ncn3C)c(Nc3cc(C)n(C)n3)nc21` (top concentration 10000 nM), for which the “selective drug sensitivity score” value is -4.16.

Turning to `Nc1nc(Cl)nc2c1ncn2[C@@H]1O[C@H](CO)[C@@H](O)[C@@H]1F` [Clofarabine] (top concentration 10000 nM), the “selective drug sensitivity score” value was found to be 3.5.

For the compound `Cc1ccc(C(=O)Nc2ccc(Oc3cc4cnn(C)c4cc3-c3cn[nH]c3)c(F)c2)c(=O)n1-c1ccc(F)cc1` [Merestinib] (top concentration 1000 nM), the “selective drug sensitivity score” value was -0.62.

For `Nc1ncn([C@@H]2O[C@H](CO)[C@@H](O)[C@H]2O)c(=O)n1` [Azacitidine] (top concentration 10000 nM), the “selective drug sensitivity score” value was found to be 3.34.

Consider `CC(C)c1cc(-c2n[nH]c(=O)n2-c2ccc3c(ccn3C)c2)c(O)cc1O` [Ganetespib] (top concentration 1000 nM), for which the “selective drug sensitivity score” value was -1.66.

Take `C[C@]1(c2nc3c(C(N)=O)cccc3[nH]2)CCCN1` [Veliparib] (top concentration 10000 nM): the “selective drug sensitivity score” value is -3.88.

In the case of `CC(=O)Nc1cccc(-n2c(=O)n(C3CC3)c(=O)c3c(Nc4ccc(I)cc4F)n(C)c(=O)c(C)c32)c1` [Trametinib] (top concentration 250 nM), the “selective drug sensitivity score” value is -8.04.

In the next assay the test system is SUP-B15. The assay is described as above. The settings on record: 72 h.
Turning to `C/C=C1\NC(=O)[C@H]2CSSCC/C=C/[C@H](CC(=O)N[C@H](C(C)C)C(=O)N2)OC(=O)[C@H](C(C)C)NC1=O` [Romidepsin] (top concentration 1000 nM), the “selective drug sensitivity score” value worked out at 4.16.

As to `CN(C)CCOc1ccc(/C(=C(/CCCl)c2ccccc2)c2ccccc2)cc1` [Toremifene] (top concentration 10000 nM), the “selective drug sensitivity score” value is 2.58.

On to `CCCCc1nc2cc(/C=C/C(=O)NO)ccc2n1CCN(CC)CC` [Pracinostat] (top concentration 10000 nM), for which the “selective drug sensitivity score” value was 5.98.

Consider `Cn1ncc(Cl)c1-c1cc(C(=O)N[C@H](CN)Cc2cccc(F)c2)sc1Cl` [Afuresertib] (top concentration 1000 nM), for which the “selective drug sensitivity score” value was 5.66.

With `Cc1cc(-c2nc(-c3ccc(OC(F)(F)F)cc3)no2)nn1Cc1ccnc(N2CCN(C3CC3)CC2)c1` [BAY_87-2243] (top concentration 1000 nM), the “selective drug sensitivity score” value was 14.1.

With `CNc1nc(-c2ccc3c(N)n[nH]c3c2)cc(N2C[C@@H](C(=O)NC3CCCCC3)CC[C@H]2C)n1` (top concentration 10000 nM), the “selective drug sensitivity score” value was 9.96.

In the case of `CN1CC[C@H](c2c(O)cc(O)c3c(=O)cc(-c4ccccc4Cl)oc23)[C@H](O)C1` [Alvocidib] (top concentration 10000 nM), the “selective drug sensitivity score” value came to 0.1.

Regarding `Cc1cc2c(C(C)C)c(O)c(O)c(C=O)c2c(O)c1-c1c(C)cc2c(C(C)C)c(O)c(O)c(C=O)c2c1O` [AT-101] (top concentration 100000 nM), the “selective drug sensitivity score” value was 5.78.

For the compound `Cc1ccc(C(=O)Nc2cccc(C(F)(F)F)c2)cc1Nc1nc(-c2cccnc2)nc2c1cnn2C` [NVP-BHG712] (top concentration 10000 nM), the “selective drug sensitivity score” value came out at 7.98.

`COC[C@H](NC(=O)c1cnc(C)s1)C(=O)N[C@@H](COC)C(=O)N[C@@H](Cc1ccccc1)C(=O)[C@@]1(C)CO1` [Oprozomib] (top concentration 2500 nM): the “selective drug sensitivity score” value was 14.

For the compound `Cc1ccc(C(=O)N(CCCN)[C@@H](c2oc3cc(Cl)ccc3c(=O)c2Cc2ccccc2)C(C)C)cc1` (top concentration 100 nM), the “selective drug sensitivity score” value came to 4.26.

Take `CCn1c(C(=O)N(C2CC2)C2CC2)cc2c3c(ncn3C)c(Nc3cc(C)n(C)n3)nc21` (top concentration 10000 nM): the “selective drug sensitivity score” value was -4.36.

Regarding `Nc1nc(Cl)nc2c1ncn2[C@@H]1O[C@H](CO)[C@@H](O)[C@@H]1F` [Clofarabine] (top concentration 10000 nM), the “selective drug sensitivity score” value was determined as 10.5.

For `Cc1ccc(C(=O)Nc2ccc(Oc3cc4cnn(C)c4cc3-c3cn[nH]c3)c(F)c2)c(=O)n1-c1ccc(F)cc1` [Merestinib] (top concentration 1000 nM), the “selective drug sensitivity score” value was -0.62.

On to `Nc1ncn([C@@H]2O[C@H](CO)[C@@H](O)[C@H]2O)c(=O)n1` [Azacitidine] (top concentration 10000 nM), for which the “selective drug sensitivity score” value was found to be 11.6.

As for `CC(C)c1cc(-c2n[nH]c(=O)n2-c2ccc3c(ccn3C)c2)c(O)cc1O` [Ganetespib] (top concentration 1000 nM), the “selective drug sensitivity score” value was determined as 1.74.

With `C[C@]1(c2nc3c(C(N)=O)cccc3[nH]2)CCCN1` [Veliparib] (top concentration 10000 nM), the “selective drug sensitivity score” value was -1.08.

Turning to `CC(=O)Nc1cccc(-n2c(=O)n(C3CC3)c(=O)c3c(Nc4ccc(I)cc4F)n(C)c(=O)c(C)c32)c1` [Trametinib] (top concentration 250 nM), the “selective drug sensitivity score” value is 13.6.

For a further assay, the system named is TMD5. The description is as above. The settings on record: 72 h.
On to `C/C=C1\NC(=O)[C@H]2CSSCC/C=C/[C@H](CC(=O)N[C@H](C(C)C)C(=O)N2)OC(=O)[C@H](C(C)C)NC1=O` [Romidepsin] (top concentration 1000 nM), for which the “selective drug sensitivity score” value came to 3.46.

As to `CN(C)CCOc1ccc(/C(=C(/CCCl)c2ccccc2)c2ccccc2)cc1` [Toremifene] (top concentration 10000 nM), the “selective drug sensitivity score” value is 0.78.

As for `CCCCc1nc2cc(/C=C/C(=O)NO)ccc2n1CCN(CC)CC` [Pracinostat] (top concentration 10000 nM), the “selective drug sensitivity score” value was 5.78.

As to `Cn1ncc(Cl)c1-c1cc(C(=O)N[C@H](CN)Cc2cccc(F)c2)sc1Cl` [Afuresertib] (top concentration 1000 nM), the “selective drug sensitivity score” value is -2.34.

Take `Cc1cc(-c2nc(-c3ccc(OC(F)(F)F)cc3)no2)nn1Cc1ccnc(N2CCN(C3CC3)CC2)c1` [BAY_87-2243] (top concentration 1000 nM): the “selective drug sensitivity score” value is -1.16.

Consider `CNc1nc(-c2ccc3c(N)n[nH]c3c2)cc(N2C[C@@H](C(=O)NC3CCCCC3)CC[C@H]2C)n1` (top concentration 10000 nM), for which the “selective drug sensitivity score” value was determined as 2.16.

`CN1CC[C@H](c2c(O)cc(O)c3c(=O)cc(-c4ccccc4Cl)oc23)[C@H](O)C1` [Alvocidib] (top concentration 10000 nM): the “selective drug sensitivity score” value was -5.7.

As for `Cc1cc2c(C(C)C)c(O)c(O)c(C=O)c2c(O)c1-c1c(C)cc2c(C(C)C)c(O)c(O)c(C=O)c2c1O` [AT-101] (top concentration 100000 nM), the “selective drug sensitivity score” value turned out to be 0.18.

`Cc1ccc(C(=O)Nc2cccc(C(F)(F)F)c2)cc1Nc1nc(-c2cccnc2)nc2c1cnn2C` [NVP-BHG712] (top concentration 10000 nM): the “selective drug sensitivity score” value was found to be 7.28.

For `COC[C@H](NC(=O)c1cnc(C)s1)C(=O)N[C@@H](COC)C(=O)N[C@@H](Cc1ccccc1)C(=O)[C@@]1(C)CO1` [Oprozomib] (top concentration 2500 nM), the “selective drug sensitivity score” value was -1.6.

On to `Cc1ccc(C(=O)N(CCCN)[C@@H](c2oc3cc(Cl)ccc3c(=O)c2Cc2ccccc2)C(C)C)cc1` (top concentration 100 nM), for which the “selective drug sensitivity score” value came to 11.9.

For `CCn1c(C(=O)N(C2CC2)C2CC2)cc2c3c(ncn3C)c(Nc3cc(C)n(C)n3)nc21` (top concentration 10000 nM), the “selective drug sensitivity score” value was -4.36.

As to `Nc1nc(Cl)nc2c1ncn2[C@@H]1O[C@H](CO)[C@@H](O)[C@@H]1F` [Clofarabine] (top concentration 10000 nM), the “selective drug sensitivity score” value was -26.5.

Turning to `Cc1ccc(C(=O)Nc2ccc(Oc3cc4cnn(C)c4cc3-c3cn[nH]c3)c(F)c2)c(=O)n1-c1ccc(F)cc1` [Merestinib] (top concentration 1000 nM), the “selective drug sensitivity score” value was -0.62.

For the compound `Nc1ncn([C@@H]2O[C@H](CO)[C@@H](O)[C@H]2O)c(=O)n1` [Azacitidine] (top concentration 10000 nM), the “selective drug sensitivity score” value is -2.26.

As for `CC(C)c1cc(-c2n[nH]c(=O)n2-c2ccc3c(ccn3C)c2)c(O)cc1O` [Ganetespib] (top concentration 1000 nM), the “selective drug sensitivity score” value is -5.36.

Consider `C[C@]1(c2nc3c(C(N)=O)cccc3[nH]2)CCCN1` [Veliparib] (top concentration 10000 nM), for which the “selective drug sensitivity score” value is -4.18.

`CC(=O)Nc1cccc(-n2c(=O)n(C3CC3)c(=O)c3c(Nc4ccc(I)cc4F)n(C)c(=O)c(C)c32)c1` [Trametinib] (top concentration 250 nM): the “selective drug sensitivity score” value is 0.16.
